This note sets out measurements from ChEMBL document CHEMBL1138010, “Discovery of highly potent, selective, orally bioavailable, metabotropic glutamate subtype 5 (mGlu5) receptor antagonists devoid of cytochrome P450 1A2 inhibitory activity” (Bioorg Med Chem Lett, 2004).

pKi: −log10 of the molar value.

Data set [1] has as its target Metabotropic glutamate receptor 5 (Rattus norvegicus, UniProt P31424). Put plainly: Binding affinity towards Metabotropic glutamate receptor was determined by displacing [3H]3-methoxy-5-(pyridin-2-ylethynyl)pyridine from rat cortical membranes.
In data set [2] the target is Metabotropic glutamate receptor 5 (Rattus norvegicus) (UniProt P31424). Nature of the data set: Antagonistic activity against Metabotropic glutamate receptor 5 in [Ca2+] flux assay using glutamate (10 uM) as agonist. In kind it is functional.
Another data set deals with T1, Cytochrome P450 1A2 (Homo sapiens, UniProt P05177).
T1 sequence (P05177 whole entry): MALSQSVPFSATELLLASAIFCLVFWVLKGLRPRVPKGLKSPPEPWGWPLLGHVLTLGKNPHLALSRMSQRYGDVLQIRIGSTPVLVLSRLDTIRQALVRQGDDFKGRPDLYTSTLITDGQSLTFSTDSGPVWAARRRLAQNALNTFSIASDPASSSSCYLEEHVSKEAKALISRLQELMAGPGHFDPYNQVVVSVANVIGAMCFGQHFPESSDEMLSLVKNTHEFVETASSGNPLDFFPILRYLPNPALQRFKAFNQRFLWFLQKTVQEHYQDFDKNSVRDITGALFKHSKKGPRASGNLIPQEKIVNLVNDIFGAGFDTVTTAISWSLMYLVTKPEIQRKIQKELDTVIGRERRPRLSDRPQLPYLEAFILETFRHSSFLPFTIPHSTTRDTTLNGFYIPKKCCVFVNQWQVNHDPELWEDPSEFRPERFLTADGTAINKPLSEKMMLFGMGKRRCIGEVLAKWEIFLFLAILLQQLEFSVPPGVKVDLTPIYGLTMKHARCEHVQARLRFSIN
Put plainly: Antagonistic activity against recombinant cytochrome P450 1A2. In kind it is ADME. The settings on record: recombinant enzyme.

Data set [3] addresses Metabotropic glutamate receptor 5 (Rattus norvegicus) (UniProt P31424). Put plainly: Percent occupancy of the Metabotropic glutamate receptor 5 by the [3H]3-methoxy-5-(pyridin-2-ylethynyl)pyridine ligand 1 hr post-administration of 10 mg/kg compound ip. It counts as organism-based. More on the design: dose 10 mg/kg.
The subject of a further data set is Rattus norvegicus. Put plainly: Concentration in rat brain measured at 1 hr post-administration of 10 mg/kg ip. In kind it is functional, organism-based. More on the design: dose 10 mg/kg.
In another data set the target is Cytochrome P450 2C9 (Homo sapiens, UniProt P11712). Nature of the data set: Antagonistic activity against recombinant cytochrome P450 2C9. The settings on record: recombinant enzyme. It counts as ADME.
Another data set has as its target Cytochrome P450 2D6 (Homo sapiens, UniProt P10635). Put plainly: Antagonistic activity against recombinant cytochrome P450 2D6. It counts as ADME. The settings on record: recombinant enzyme.
The next data set concerns the target Cytochrome P450 2C19 (Homo sapiens, UniProt P33261). Put plainly: Antagonistic activity against recombinant cytochrome P450 2C19. It counts as ADME. The note with it: recombinant enzyme.
Data set [4] is described as follows: Oral bioavailability. The settings on record: rat, in vivo. It counts as ADME, organism-based.
Data set [5] in a line: Half life was determined. It counts as ADME. The settings on record: rat.
Data set [6] can be described thus: Area under the curve was determined. It counts as ADME. The note with it: rat.
A short description of data set [7]: Volume of distribution was determined. In kind it is ADME, organism-based. The note with it: rat, in vivo.
Data set [8] can be described thus: Plasma clearance was determined. In kind it is ADME, organism-based. The note with it: rat.
A further data set addresses Cytochrome P450 3A4 (Homo sapiens, UniProt P08684). Nature of the data set: Antagonistic activity against recombinant cytochrome P450 3A4. It counts as ADME. The settings on record: recombinant enzyme.
Data set [9] can be described thus: Area under the curve after dosing 2 mg/kg iv and 10 mg/kg po. In kind it is ADME, organism-based. The note with it: rat, in vivo.
Data set [10] can be described thus: Oral bioavailability after dosing 2 mg/kg iv and 10 mg/kg po. It counts as ADME, organism-based. The note with it: rat, in vivo.
The nature of data set [11]: Plasma clearance after dosing 2 mg/kg iv and 10 mg/kg po. It counts as ADME, organism-based. The note with it: rat.
The nature of data set [12]: Volume of distribution after dosing 2 mg/kg iv and 10 mg/kg po. The settings on record: rat, in vivo. It counts as ADME, organism-based.

Sequence of Metabotropic glutamate receptor 5 (P31424 whole entry): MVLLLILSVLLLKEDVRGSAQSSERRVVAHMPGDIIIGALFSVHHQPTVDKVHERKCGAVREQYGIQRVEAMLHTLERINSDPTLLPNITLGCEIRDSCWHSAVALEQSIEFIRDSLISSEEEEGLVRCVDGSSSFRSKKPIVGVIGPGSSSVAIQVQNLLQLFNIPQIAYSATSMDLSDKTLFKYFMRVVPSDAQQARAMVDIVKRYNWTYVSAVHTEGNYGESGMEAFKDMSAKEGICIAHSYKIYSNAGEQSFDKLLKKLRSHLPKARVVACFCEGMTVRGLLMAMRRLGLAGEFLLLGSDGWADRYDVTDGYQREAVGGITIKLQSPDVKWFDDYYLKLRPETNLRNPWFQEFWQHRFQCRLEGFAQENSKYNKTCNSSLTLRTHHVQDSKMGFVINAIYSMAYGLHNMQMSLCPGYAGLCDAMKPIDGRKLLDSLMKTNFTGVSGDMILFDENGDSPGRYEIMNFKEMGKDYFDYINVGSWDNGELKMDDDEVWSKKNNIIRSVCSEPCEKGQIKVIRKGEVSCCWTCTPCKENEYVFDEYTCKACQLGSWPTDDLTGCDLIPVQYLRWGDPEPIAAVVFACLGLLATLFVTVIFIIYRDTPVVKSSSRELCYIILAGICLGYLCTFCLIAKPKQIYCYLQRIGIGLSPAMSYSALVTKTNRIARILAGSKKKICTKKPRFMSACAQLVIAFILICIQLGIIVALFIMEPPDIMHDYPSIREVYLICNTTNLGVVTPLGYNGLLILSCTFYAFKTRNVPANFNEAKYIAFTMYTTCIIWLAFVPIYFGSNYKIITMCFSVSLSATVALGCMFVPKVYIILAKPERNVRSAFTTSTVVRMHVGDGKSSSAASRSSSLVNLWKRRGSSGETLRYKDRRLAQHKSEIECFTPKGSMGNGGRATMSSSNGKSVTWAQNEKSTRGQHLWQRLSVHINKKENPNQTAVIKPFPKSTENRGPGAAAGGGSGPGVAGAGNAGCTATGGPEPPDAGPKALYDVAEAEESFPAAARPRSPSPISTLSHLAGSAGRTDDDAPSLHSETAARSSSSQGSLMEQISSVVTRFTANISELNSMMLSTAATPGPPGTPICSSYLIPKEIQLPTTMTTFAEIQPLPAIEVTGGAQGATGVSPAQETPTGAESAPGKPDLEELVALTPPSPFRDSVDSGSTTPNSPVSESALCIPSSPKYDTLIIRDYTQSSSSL
Sequence of Metabotropic glutamate receptor 5 (Rattus norvegicus) (P31424 21-1203 limits assumed): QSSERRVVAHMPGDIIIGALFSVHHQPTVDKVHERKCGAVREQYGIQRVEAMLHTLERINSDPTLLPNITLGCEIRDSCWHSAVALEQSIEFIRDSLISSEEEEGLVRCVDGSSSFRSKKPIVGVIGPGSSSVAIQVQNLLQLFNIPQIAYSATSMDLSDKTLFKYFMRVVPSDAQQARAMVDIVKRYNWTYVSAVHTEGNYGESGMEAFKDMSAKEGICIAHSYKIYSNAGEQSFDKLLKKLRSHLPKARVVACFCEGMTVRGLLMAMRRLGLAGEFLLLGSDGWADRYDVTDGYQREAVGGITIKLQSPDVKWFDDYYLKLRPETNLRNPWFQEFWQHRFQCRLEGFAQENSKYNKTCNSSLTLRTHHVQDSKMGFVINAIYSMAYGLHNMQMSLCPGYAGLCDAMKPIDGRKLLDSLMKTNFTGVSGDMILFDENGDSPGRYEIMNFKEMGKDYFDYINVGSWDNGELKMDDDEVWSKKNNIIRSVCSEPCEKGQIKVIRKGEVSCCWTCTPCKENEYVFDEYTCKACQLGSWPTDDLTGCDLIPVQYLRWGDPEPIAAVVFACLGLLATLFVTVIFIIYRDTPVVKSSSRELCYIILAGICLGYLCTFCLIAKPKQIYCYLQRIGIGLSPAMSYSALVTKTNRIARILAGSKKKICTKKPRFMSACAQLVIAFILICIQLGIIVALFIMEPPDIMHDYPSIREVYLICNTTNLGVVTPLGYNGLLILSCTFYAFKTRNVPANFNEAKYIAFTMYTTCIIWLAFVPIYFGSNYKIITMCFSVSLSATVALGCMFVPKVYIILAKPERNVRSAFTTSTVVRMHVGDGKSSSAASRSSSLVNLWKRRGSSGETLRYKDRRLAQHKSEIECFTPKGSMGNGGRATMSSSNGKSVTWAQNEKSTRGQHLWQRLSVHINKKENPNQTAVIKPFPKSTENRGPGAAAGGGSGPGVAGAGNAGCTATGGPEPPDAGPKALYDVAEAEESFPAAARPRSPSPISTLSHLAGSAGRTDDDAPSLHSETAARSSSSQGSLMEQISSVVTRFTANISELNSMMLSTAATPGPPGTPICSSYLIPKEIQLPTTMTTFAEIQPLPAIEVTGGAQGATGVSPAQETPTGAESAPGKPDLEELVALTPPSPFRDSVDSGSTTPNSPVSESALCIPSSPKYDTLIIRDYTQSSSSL
Sequence of Cytochrome P450 2D6 (P10635 whole entry): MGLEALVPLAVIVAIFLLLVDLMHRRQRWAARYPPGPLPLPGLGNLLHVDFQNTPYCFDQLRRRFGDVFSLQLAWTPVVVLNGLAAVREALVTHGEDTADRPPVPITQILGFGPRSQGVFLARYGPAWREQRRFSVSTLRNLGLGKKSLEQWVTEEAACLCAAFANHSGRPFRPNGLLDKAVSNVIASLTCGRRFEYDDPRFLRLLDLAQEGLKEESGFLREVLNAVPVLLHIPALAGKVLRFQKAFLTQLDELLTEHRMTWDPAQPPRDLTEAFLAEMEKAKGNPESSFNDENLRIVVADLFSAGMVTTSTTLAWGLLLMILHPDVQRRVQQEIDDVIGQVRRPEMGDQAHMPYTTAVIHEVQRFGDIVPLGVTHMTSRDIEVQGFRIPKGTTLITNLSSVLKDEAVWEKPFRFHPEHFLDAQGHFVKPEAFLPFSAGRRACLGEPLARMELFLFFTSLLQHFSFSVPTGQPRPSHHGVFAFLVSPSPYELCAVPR
Sequence of Cytochrome P450 2C9 (P11712 whole entry): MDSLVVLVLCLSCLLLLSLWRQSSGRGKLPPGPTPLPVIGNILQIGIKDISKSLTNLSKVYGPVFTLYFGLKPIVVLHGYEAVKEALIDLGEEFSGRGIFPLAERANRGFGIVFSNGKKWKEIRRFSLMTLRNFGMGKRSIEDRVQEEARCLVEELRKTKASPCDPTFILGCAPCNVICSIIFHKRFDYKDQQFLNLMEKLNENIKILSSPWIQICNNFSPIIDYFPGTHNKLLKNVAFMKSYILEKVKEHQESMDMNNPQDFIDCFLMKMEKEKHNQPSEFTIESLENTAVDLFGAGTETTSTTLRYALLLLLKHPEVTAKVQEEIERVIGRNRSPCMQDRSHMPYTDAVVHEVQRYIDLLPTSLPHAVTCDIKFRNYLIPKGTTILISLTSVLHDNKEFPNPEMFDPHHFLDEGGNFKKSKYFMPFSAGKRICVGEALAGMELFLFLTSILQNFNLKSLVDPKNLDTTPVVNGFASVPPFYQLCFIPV
Sequence of Cytochrome P450 3A4 (P08684 whole entry): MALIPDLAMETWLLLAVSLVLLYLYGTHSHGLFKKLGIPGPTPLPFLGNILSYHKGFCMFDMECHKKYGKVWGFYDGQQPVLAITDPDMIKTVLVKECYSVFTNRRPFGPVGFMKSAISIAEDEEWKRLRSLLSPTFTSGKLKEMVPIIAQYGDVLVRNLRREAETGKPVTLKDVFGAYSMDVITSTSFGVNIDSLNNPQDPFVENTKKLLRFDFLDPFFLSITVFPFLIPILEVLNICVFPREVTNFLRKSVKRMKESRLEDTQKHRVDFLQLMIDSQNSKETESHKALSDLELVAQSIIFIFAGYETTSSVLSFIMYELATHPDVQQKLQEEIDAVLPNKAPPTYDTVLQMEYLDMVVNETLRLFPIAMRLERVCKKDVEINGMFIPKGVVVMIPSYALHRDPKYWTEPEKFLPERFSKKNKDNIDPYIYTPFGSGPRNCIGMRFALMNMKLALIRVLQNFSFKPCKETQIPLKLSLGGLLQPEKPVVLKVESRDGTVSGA
Sequence of Cytochrome P450 2C19 (P33261 whole entry): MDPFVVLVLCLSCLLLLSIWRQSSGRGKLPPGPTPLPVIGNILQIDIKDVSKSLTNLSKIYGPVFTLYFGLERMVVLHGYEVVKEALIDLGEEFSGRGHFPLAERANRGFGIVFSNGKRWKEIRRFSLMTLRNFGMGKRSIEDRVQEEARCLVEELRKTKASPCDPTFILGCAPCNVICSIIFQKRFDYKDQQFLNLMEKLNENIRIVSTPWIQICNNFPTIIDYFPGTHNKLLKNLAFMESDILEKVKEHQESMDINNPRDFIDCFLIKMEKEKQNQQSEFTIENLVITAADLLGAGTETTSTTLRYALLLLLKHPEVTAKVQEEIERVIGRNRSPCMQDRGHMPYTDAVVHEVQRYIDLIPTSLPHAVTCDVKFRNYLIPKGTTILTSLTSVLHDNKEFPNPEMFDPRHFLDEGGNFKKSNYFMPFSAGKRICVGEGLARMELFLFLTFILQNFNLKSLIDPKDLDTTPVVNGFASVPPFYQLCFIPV

For orientation: pKi means the negative decadic logarithm of the Ki, by convention in mol/L. The molecule `N#Cc1cccc(-n2nnc(-c3cscn3)n2)c1` had a pKi in data set [1] of 6.80. Moreover, the Activity amounted to 148 nM in data set [2] and 1.7 µM at Cytochrome P450 1A2.

In [1], `N#Cc1cccc(-n2nnc(-c3cc[nH]n3)n2)c1` showed a pKi below 5.70. For the same molecule, in data set [2], the Activity is above 2000 nM.

In turn, `N#Cc1cc(F)cc(-n2nnc(-c3ncc[nH]3)n2)c1` showed a negative-log Ki (pKi) in [1] of 8.03. Also, the Occupancy in [3] worked out at 95%. The Activity was 47 nM in data set [2] and above 14 µM at Cytochrome P450 1A2.

For the molecule `N#Cc1cccc(-n2nnc(-c3c[nH]cn3)n2)c1`, the pKi in data set [1] was below 5.70. Also, the Activity in data set [2] is above 2000 nM.

Turning to `Cc1ccncc1-c1cc(F)cc(-n2nnc(-c3ccccn3)n2)c1`, the pKi in data set [1] is 8.74. Also, in data set [3], the Occupancy is 95%. For the same molecule, the Activity was 5.2 nM in data set [2] and 0.5 µM at Cytochrome P450 1A2.

In [1], `N#Cc1cccc(-n2nnc(-c3ccccn3)n2)c1` showed a pKi of 6.99. Moreover, the Occupancy in [3] was determined as 90%. Besides, the values for the Activity (in data set [2]; on Cytochrome P450 1A2) were 73 nM and 3.8 µM, respectively.

In [1], `Fc1cc(Oc2cccnc2)cc(-n2nnc(-c3ncc[nH]3)n2)c1` gave a negative logarithm of the Ki (pKi) of 8.49. The same molecule had an Occupancy in data set [3] of 69%. Further, the Activity came to 9.7 nM in data set [2] and 5.1 µM on Cytochrome P450 1A2.

In the case of `N#Cc1cccc(-n2nnc(-c3ncc[nH]3)n2)c1`, the negative logarithm of the Ki (pKi) in data set [1] was 7.47. For the same molecule, the Activity is 77 nM in data set [2] and above 14 µM on Cytochrome P450 1A2.

In data set [1], `Cc1ccncc1-c1cc(F)cc(-n2nnc(-c3ncc[nH]3)n2)c1` showed a negative-log Ki (pKi) of 8.46. In data set [3], this molecule had an Occupancy of 29%. The figures for the Activity (in data set [2]; at Cytochrome P450 1A2) were 20 nM and 3.5 µM, respectively.

Broadly, the bioavailability is dose-corrected exposure relative to a reference, in per cent. Read a low bioavailability as little systemic uptake. By half-life is commonly meant the time in which the quantity being followed falls by half. Higher therefore signals slow decline. The AUC is the area under the concentration-time curve, a measure of exposure. A low value points to less exposure. The molecule `Cc1c[nH]c(-c2nnn(-c3cc(F)cc(C#N)c3)n2)n1` displayed a Concentration with Rattus norvegicus of 8.1 µM. The same molecule had a pKi in [1] of 7.72. In [3], this molecule displayed an Occupancy of 97%. For the same molecule, the Activity in data set [2] was 77 nM; at Cytochrome P450 1A2 it was above 14 µM; on Cytochrome P450 2C9 it was above 14 µM; on Cytochrome P450 2D6 it was above 14 µM; at Cytochrome P450 2C19, above 14 µM; on Cytochrome P450 3A4, above 14 µM. For the same molecule, the bioavailability in data set [4] came to 22%. Also, the half-life in [5] was 18 min. The same molecule had an AUC in data set [6] of 3.4 µM·h. Moreover, in data set [7], the Vd is 0.6 L/kg. The clearance in [8] amounted to 40 mL/min/kg.

In data set [1], `N#Cc1cccc(-n2nnc(-c3nccs3)n2)c1` gave a negative logarithm of the Ki (pKi) of 6.74. The Activity stood at 142 nM in [2] and 1 µM at Cytochrome P450 1A2.

In data set [3], `Fc1cc(Oc2cccnc2)cc(-n2nnc(-c3ccccn3)n2)c1` gave an Occupancy of 90%. The Activity in data set [2] stood at 6.7 nM; on Cytochrome P450 1A2, 0.7 µM.

`N#Cc1cc(F)cc(-n2nnc(-c3ccccn3)n2)c1` came in with a Concentration in the data set with Rattus norvegicus of 9.7 µM. In addition, the Activity in [2] was 3.9 nM; at Cytochrome P450 1A2 it was 2.3 µM; at Cytochrome P450 2C9 it was above 14 µM; on Cytochrome P450 2D6, above 14 µM; on Cytochrome P450 2C19, above 14 µM; at Cytochrome P450 3A4, above 14 µM. The molecule further displayed an AUC in data set [9] of 9.6 µM·h. In [10], this molecule yielded a bioavailability of 24%. Moreover, the clearance in [11] was 15 mL/min/kg. In data set [12], this molecule had a Vd of 1.1 L/kg.
